In patent publication US20250353853A1, “FLAVIVIRUS INHIBITORS” (IRBM S.P.A., priority 2022, published 2025):
Counter-ions that a name gives are not always drawn. Like-named read-outs stand apart in the source and are kept apart here.

Legend:
[1] = target: West Nile Virus (WNV) NS2B-NS3 protease (West Nile virus (WNV), UniProt P06935); assay: WNV Protease Inhibition Assay; assay type: biochemical
Description: WNV Protease Inhibition Assay

[2] = test system: ZIKV replicon in Vero cells; assay: ZIKV Replication Inhibition Assay (replicon, NanoLuc); conditions: Zika virus, Vero, 72 h, read-out: Zika Replicon EC50
[3] = 2 nM protease, 10 μM pERTKR-AMC substrate, read-out: WNV Protease IC50

West Nile Virus (WNV) NS2B-NS3 protease, sequence (P06935 1502-1679 limits assumed): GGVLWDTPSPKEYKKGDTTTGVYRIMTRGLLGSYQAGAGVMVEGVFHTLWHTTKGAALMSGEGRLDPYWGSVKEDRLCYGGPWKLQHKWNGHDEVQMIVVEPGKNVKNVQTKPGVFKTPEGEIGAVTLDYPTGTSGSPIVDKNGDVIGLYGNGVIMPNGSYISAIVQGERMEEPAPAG
West Nile Virus (WNV) NS2B-NS3 protease, sequence (P06935 1371-1501 partner limits assumed): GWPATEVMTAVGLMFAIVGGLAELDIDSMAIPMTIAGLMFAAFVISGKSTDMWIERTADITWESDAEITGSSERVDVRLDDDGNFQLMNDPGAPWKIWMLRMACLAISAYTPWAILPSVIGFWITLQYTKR

SMILES: O=C([N-]c1c[n+](Cc2ccc(-c3ccnnc3)cn2)no1)Nc1cccc(C(F)(F)F)c1 [Example 160, (3-((5-(pyridazin-4-yl)pyridin-2-yl)methyl)-1,2,3-oxadiazol-3-ium-5-yl)((3-(trifluoromethyl)phenyl)carbamoyl)amide]
- IC50 [1, 3]: < 100 nM
- EC50 [2]: 100 to 1000 nM

SMILES: C[C@H](c1ccc(-c2cncnc2)cc1)[n+]1cc([N-]C(=O)Nc2cncc(C(F)(F)F)c2)on1 [Example 75, (R)-(3-(1-(4-(pyrimidin-5-yl)phenyl)ethyl)-1,2,3-oxadiazol-3-ium-5-yl)((5-(trifluoromethyl)pyridin-3-yl)carbamoyl)amide]
- IC50 [1, 3]: < 100 nM
- EC50 [2]: 100 to 1000 nM

SMILES: O=C([N-]c1c[n+](Cc2ccc(I)cc2)no1)Nc1cccc(C(F)(F)F)c1 [Example 47, (3-(4-iodobenzyl)-1,2,3-oxadiazol-3-ium-5-yl)((3-(trifluoromethyl)phenyl)carbamoyl)amide]
- IC50 [1]: 100 to 1000 nM
- EC50 [2]: 100 to 1000 nM

SMILES: O=C([N-]c1c[n+](Cc2ccc(-c3cncnc3C(F)(F)F)cn2)no1)Nc1cncc(C(F)(F)F)c1 [Example 137, ((5-(trifluoromethyl)pyridin-3-yl)carbamoyl)(3-((5-(4-(trifluoromethyl)pyrimidin-5-yl)pyridin-2-yl)methyl)-1,2,3-oxadiazol-3-ium-5-yl)amide]
- IC50 [1, 3]: < 100 nM
- EC50 [2]: < 100 nM

SMILES: Cc1cnncc1-c1ccc(C[n+]2cc([N-]C(=O)Nc3cccc(C(F)(F)F)c3)on2)nc1 [Example 129, (3-((5-(5-methylpyridazin-4-yl)pyridin-2-yl)methyl)-1,2,3-oxadiazol-3-ium-5-yl)((3-(trifluoromethyl)phenyl)carbamoyl)amide]
- IC50 [1, 3]: < 100 nM
- EC50 [2]: 100 to 1000 nM

SMILES: Cc1ncnc(C)c1-c1ccc(C[n+]2cc([N-]C(=O)Nc3cncc(C(F)(F)F)c3)on2)nc1 [Example 132, (3-((5-(4,6-dimethylpyrimidin-5-yl)pyridin-2-yl)methyl)-1,2,3-oxadiazol-3-ium-5-yl)((5-(trifluoromethyl)pyridin-3-yl)carbamoyl)amide]
- IC50 [1]: 100 to 1000 nM
- EC50 [2]: 100 to 1000 nM

SMILES: COc1ncc(-c2ccc(C[n+]3cc([N-]C(=O)Nc4cccc(C(F)(F)F)c4)on3)nc2)c(C)n1 [Example 134, (3-((5-(2-methoxy-4-methylpyrimidin-5-yl)pyridin-2-yl)methyl)-1,2,3-oxadiazol-3-ium-5-yl)((3-(trifluoromethyl)phenyl)carbamoyl)amide]
- IC50 [1, 3]: < 100 nM
- EC50 [2]: < 100 nM

SMILES: O=C([N-]c1c[n+](Cc2cccc(-c3cccnc3)c2)no1)Nc1cccc(C(F)(F)F)c1 [Example 51, (3-(3-(pyridin-3-yl)benzyl)-1,2,3-oxadiazol-3-ium-5-yl)((3-(trifluoromethyl)phenyl)carbamoyl)amide]
- IC50 [1]: 100 to 1000 nM
- EC50 [2]: 100 to 1000 nM

SMILES: COc1ncc(-c2ccc(C[n+]3cc([N-]C(=O)Nc4cncc(C(F)(F)F)c4)on3)cc2)cn1 [Example 58, (3-(4-(2-methoxypyrimidin-5-yl)benzyl)-1,2,3-oxadiazol-3-ium-5-yl)((5-(trifluoromethyl)pyridin-3-yl)carbamoyl)amide]
- IC50 [1, 3]: < 100 nM
- EC50 [2]: 100 to 1000 nM

SMILES: O=C([N-]c1c[n+]([C@@H](CO)Cc2ccccc2)no1)Nc1cccc(C(F)(F)F)c1 [Example 45]
- IC50 ([1]; read-out: WNV Protease IC50, 2 nM protease, 10 μM pERTKR-AMC substrate): 1000 to 20000 nM

SMILES: CC(Cc1ccccc1)[n+]1cc([N-]C(=O)Nc2ncc(C(F)(F)F)s2)on1 (centres unmarked) [Example 4, (3-(1-phenylpropan-2-yl)-1,2,3-oxadiazol-3-ium-5-yl)((5-(trifluoromethyl)thiazol-2-yl)carbamoyl)amide]
- EC50 [2]: 1000 to 20000 nM

SMILES: N#Cc1ncncc1-c1ccc(C[n+]2cc([N-]C(=O)Nc3cccc(C(F)(F)F)c3)on2)cc1 [Example 106, (3-(4-(4-cyanopyrimidin-5-yl)benzyl)-1,2,3-oxadiazol-3-ium-5-yl)((3-(trifluoromethyl)phenyl)carbamoyl)amide]
- EC50 [2]: 100 to 1000 nM

SMILES: CC(Cc1ccccc1)[n+]1cc([N-]C(=O)Nc2cc(C(F)(F)F)ccn2)on1 (centres unmarked) [Example 16, (3-(1-phenylpropan-2-yl)-1,2,3-oxadiazol-3-ium-5-yl)((4-(trifluoromethyl)pyridin-2-yl)carbamoyl)amide]
- EC50 [2]: > 20000 nM

SMILES: Cc1noc(C)c1-c1ccc([C@H](CN)[n+]2cc([N-]C(=O)Nc3cccc(C(F)(F)F)c3)on2)cc1 [Example 99, (R)-(3-(2-amino-1-(4-(3,5-dimethylisoxazol-4-yl)phenyl)ethyl)-1,2,3-oxadiazol-3-ium-5-yl)((3-(trifluoromethyl)phenyl)carbamoyl)amide formate]
- EC50 [2]: < 100 nM

SMILES: CC(Cc1ccccc1)[n+]1cc([N-]C(=O)Nc2cncc(C(F)(F)F)c2)on1 (centres unmarked) [Example 15, (3-(1-Phenylpropan-2-yl)-1,2,3-oxadiazol-3-ium-5-yl)((5-(trifluoromethyl)pyridin-3-yl)carbamoyl)amide]
- EC50 [2]: 1000 to 20000 nM

SMILES: C[C@@H](Cc1ccccc1)[n+]1cc([N-]C(=O)Nc2cccc(C(F)(F)F)c2)on1 [Example 14, (S)-(3-(1-phenylpropan-2-yl)-1,2,3-oxadiazol-3-ium-5-yl)((3-(trifluoromethyl)phenyl)carbamoyl)amide]
- EC50 [2]: > 20000 nM

SMILES: O=C([N-]c1c[n+](Cc2ccc(B(O)O)cn2)no1)Nc1cccc(C(F)(F)F)c1 [Example 122, (3-((5-boronopyridin-2-yl)methyl)-1,2,3-oxadiazol-3-ium-5-yl)((3-(trifluoromethyl)phenyl)carbamoyl)amide]
- EC50 [2]: > 20000 nM

SMILES: CC(Cc1ccc(Cl)c(Cl)c1)[n+]1cc([N-]C(=O)Nc2cccc(C(F)(F)F)c2)on1 (centres unmarked) [Example 9, (3-(1-(3,4-dichlorophenyl)propan-2-yl)-1,2,3-oxadiazol-3-ium-5-yl)((3-(trifluoromethyl)phenyl)carbamoyl)amide]
- EC50 [2]: 1000 to 20000 nM

SMILES: Cc1ncncc1-c1ccc([C@@H](C)[n+]2cc([N-]C(=O)Nc3cccc(C(F)(F)F)c3)on2)cc1 [Example 82, (R)-(3-(1-(4-(4-methylpyrimidin-5-yl)phenyl)ethyl)-1,2,3-oxadiazol-3-ium-5-yl)((3-(trifluoromethyl)phenyl)carbamoyl)amide]
- EC50 [2]: 100 to 1000 nM

SMILES: Cc1noc(C)c1-c1cnc(C[n+]2cc([N-]C(=O)Nc3cccc(C(F)(F)F)c3)on2)cn1 [Example 169, (3-((5-(3,5-dimethylisoxazol-4-yl)pyrazin-2-yl)methyl)-1,2,3-oxadiazol-3-ium-5-yl)((3-(trifluoromethyl)phenyl)carbamoyl)amide]
- EC50 [2]: 100 to 1000 nM

SMILES: CC(Cc1ccccc1)[n+]1cc([N-]C(=O)Nc2ccc3ncccc3c2)on1 (centres unmarked) [Example 12, (3-(1-phenylpropan-2-yl)-1,2,3-oxadiazol-3-ium-5-yl)(quinolin-6-ylcarbamoyl) amide]
- EC50 [2]: > 20000 nM

SMILES: Cc1ccncc1-c1ccc(C[n+]2cc([N-]C(=O)Nc3cccc(C(F)(F)F)c3)on2)cc1 [Example 85, (3-(4-(4-methylpyridin-3-yl)benzyl)-1,2,3-oxadiazol-3-ium-5-yl)((3-(trifluoromethyl)phenyl)carbamoyl)amide]
- EC50 [2]: < 100 nM

SMILES: Cc1ncn(C)c1-c1ccc(C[n+]2cc([N-]C(=O)Nc3cccc(C(F)(F)F)c3)on2)nc1 [Example 118, (3-((5-(1,4-dimethyl-1H-imidazol-5-yl)pyridin-2-yl)methyl)-1,2,3-oxadiazol-3-ium-5-yl)((3-(trifluoromethyl)phenyl)carbamoyl)amide]
- EC50 [2]: 100 to 1000 nM

SMILES: C[C@@H](c1ccc(Br)cc1)[n+]1cc([N-]C(=O)Nc2cncc(C(F)(F)F)c2)on1 [Example 76, (S)-(3-(1-(4-bromophenyl)ethyl)-1,2,3-oxadiazol-3-ium-5-yl)((5-(trifluoromethyl)pyridin-3-yl)carbamoyl)amide]
- EC50 [2]: 100 to 1000 nM

SMILES: Cc1ncccc1-c1ccc(C[n+]2cc([N-]C(=O)Nc3cccc(C(F)(F)F)c3)on2)cc1 [Example 92, (3-(4-(2-methylpyridin-3-yl)benzyl)-1,2,3-oxadiazol-3-ium-5-yl)((3-(trifluoromethyl)phenyl)carbamoyl)amide]
- EC50 [2]: < 100 nM

SMILES: O=C([N-]c1c[n+]([C@H](CF)Cc2ccccc2)no1)Nc1cccc(C(F)(F)F)c1 [Example 37, (S)-(3-(1-fluoro-3-phenylpropan-2-yl)-1,2,3-oxadiazol-3-ium-5-yl)((3-(trifluoromethyl)phenyl)carbamoyl)amide]
- EC50 [2]: > 20000 nM

SMILES: O=C([N-]c1c[n+](Cc2ccc(-c3ccc(CN4CCOCC4)cc3)cc2)no1)Nc1cccc(C(F)(F)F)c1 [Example 56, (3-((4′-(morpholinomethyl)-[1,1′-biphenyl]-4-yl)methyl)-1,2,3-oxadiazol-3-ium-5-yl)((3-(trifluoromethyl)phenyl)carbamoyl)amide]
- EC50 [2]: 1000 to 20000 nM

SMILES: O=C([N-]c1c[n+](Cc2ccc(-c3cnn4c3CNCC4)cn2)no1)Nc1cccc(C(F)(F)F)c1 [Example 124, (3-((5-(4,5,6,7-tetrahydropyrazolo[1,5-a]pyrazin-3-yl)pyridin-2-yl)methyl)-1,2,3-oxadiazol-3-ium-5-yl)((3-(trifluoromethyl)phenyl)carbamoyl)amide]
- EC50 [2]: 100 to 1000 nM

SMILES: CC(Cc1ccccc1)[n+]1cc([N-]C(=O)Nc2cccc(C(F)(F)F)c2)on1 (centres unmarked) [Example 1, (3-(1-Phenylpropan-2-yl)-1,2,3-oxadiazol-3-ium-5-yl)((3-(trifluoromethyl)phenyl)carbamoyl)amide]
- EC50 [2]: 1000 to 20000 nM

SMILES: Cc1cc(C[n+]2cc([N-]C(=O)Nc3cccc(C(F)(F)F)c3)on2)ccc1-c1c(C)noc1C [Example 88, (3-(4-(3,5-Dimethylisoxazol-4-yl)-3-methylbenzyl)-1,2,3-oxadiazol-3-ium-5-yl)((3-(trifluoromethyl)phenyl)carbamoyl)amide]
- EC50 [2]: < 100 nM

SMILES: CC(Cc1ccccc1)[n+]1cc([N-]C(=O)Nc2ccc(C(F)(F)F)cc2)on1 (centres unmarked) [Example 2, (3-(1-phenylpropan-2-yl)-1,2,3-oxadiazol-3-ium-5-yl)((4-(trifluoromethyl)phenyl)carbamoyl)amide]
- EC50 [2]: > 20000 nM

SMILES: Cc1cc(C[n+]2cc([N-]C(=O)Nc3cccc(C(F)(F)F)c3)on2)ccc1-c1cncnc1C [Example 101, (3-(3-methyl-4-(4-methylpyrimidin-5-yl)benzyl)-1,2,3-oxadiazol-3-ium-5-yl)((3-(trifluoromethyl)phenyl)carbamoyl)amide]
- EC50 [2]: < 100 nM
